Experimental data: patent publication US12157717B2, “Compounds for the treatment of bovine or swine respiratory disease” (Intervet Inc., priority 2018, dated 2024)
In brackets after ≈: the same amount, converted by molar mass.

Tested on: Mannheimia haemolytica MH 6357 (M7/2)
Assay: MIC, broth-microdilution (CLSI), strain MH 6357
Format: cell-based
Conditions: Mannheimia haemolytica M7/2, reference strain (cattle infection strain)
Experimental: (§1) The Minimum inhibitory concentrations (MIC) of compounds according to the invention for a number of veterinary bacterial pathogens were determined by the broth-microdilution method according to CLSI document VETO 1-A4.
(§2) Microdilution trays containing a doubling dilution series of the test compound were used for the tests. The MIC results were interpreted according to the CLSI documents VET01-S3. The lowest concentration of compound at which no visible growth (i.e. no turbidity) detected by the unaided eye was recorded as the MIC.

| SMILES | MIC MH 6357 [µM] |
| --- | --- |
| C#CCNCc1ccc(C#Cc2ccc(C(=O)N(C)C(C(=O)NC)C(=O)NO)cc2)cc1 (centres unmarked) [Compound 30] | 0.8 (≈ 0.346 µg/mL) |
| CNC(=O)C(NC(=O)c1ccc(C#Cc2ccc(CN3CCCC3)cc2)cc1)C(=O)NO (centres unmarked) [Compound 7] | 3.1 (≈ 1.35 µg/mL) |
| CNC(=O)C(C(=O)NO)N(C)C(=O)c1ccc(C#Cc2ccc(CNC3CCCC3)cc2)cc1 (centres unmarked) [Compound 26] | 6.3 (≈ 2.91 µg/mL) |
| CNC(=O)C(NC(=O)c1ccc(C#Cc2ccc(CNCc3ccc(C)cc3)cc2)cc1)C(=O)NO (centres unmarked) [Compound 16] | 0.4 (≈ 0.194 µg/mL) |
| CCCNCc1ccc(C#Cc2ccc(C(=O)NC(C(=O)NC)C(=O)NO)cc2)cc1 (centres unmarked) [Compound 10] | 3.1 (≈ 1.31 µg/mL) |

Tested on: Mannheimia haemolytica MH 6374 (ATCC 33396)
Assay: MIC, broth-microdilution (CLSI), strain MH 6374
Format: cell-based
Conditions: Mannheimia haemolytica ATCC 33396, reference strain
Experimental: as §1, §2

| SMILES | MIC MH 6374 [µM] |
| --- | --- |
| C#CCNCc1ccc(C#Cc2ccc(C(=O)N(C)C(C(=O)NC)C(=O)NO)cc2)cc1 (centres unmarked) [Compound 30] | 0.8 (≈ 0.346 µg/mL) |
| CNC(=O)C(NC(=O)c1ccc(C#Cc2ccc(CN3CCCC3)cc2)cc1)C(=O)NO (centres unmarked) [Compound 7] | 12.5 (≈ 5.43 µg/mL) |
| CNC(=O)C(C(=O)NO)N(C)C(=O)c1ccc(C#Cc2ccc(CNC3CCCC3)cc2)cc1 (centres unmarked) [Compound 26] | 12.5 (≈ 5.78 µg/mL) |
| CNC(=O)C(NC(=O)c1ccc(C#Cc2ccc(CNCc3ccc(C)cc3)cc2)cc1)C(=O)NO (centres unmarked) [Compound 16] | 0.8 (≈ 0.388 µg/mL) |
| CCCNCc1ccc(C#Cc2ccc(C(=O)NC(C(=O)NC)C(=O)NO)cc2)cc1 (centres unmarked) [Compound 10] | 6.3 (≈ 2.66 µg/mL) |

Tested on: Mannheimia haemolytica MH 10720 (154)
Assay: MIC, broth-microdilution (CLSI), strain MH 10720
Format: cell-based
Conditions: Mannheimia haemolytica 154, BRD field isolate
Experimental: as §1, §2

| SMILES | MIC MH 10720 [µM] |
| --- | --- |
| C#CCNCc1ccc(C#Cc2ccc(C(=O)N(C)C(C(=O)NC)C(=O)NO)cc2)cc1 (centres unmarked) [Compound 30] | 0.4 (≈ 0.173 µg/mL) |
| CNC(=O)C(NC(=O)c1ccc(C#Cc2ccc(CN3CCCC3)cc2)cc1)C(=O)NO (centres unmarked) [Compound 7] | 1.6 (≈ 0.695 µg/mL) |
| CNC(=O)C(C(=O)NO)N(C)C(=O)c1ccc(C#Cc2ccc(CNC3CCCC3)cc2)cc1 (centres unmarked) [Compound 26] | 3.1 (≈ 1.43 µg/mL) |
| CNC(=O)C(NC(=O)c1ccc(C#Cc2ccc(CNCc3ccc(C)cc3)cc2)cc1)C(=O)NO (centres unmarked) [Compound 16] | 0.2 (≈ 0.0969 µg/mL) |
| CCCNCc1ccc(C#Cc2ccc(C(=O)NC(C(=O)NC)C(=O)NO)cc2)cc1 (centres unmarked) [Compound 10] | 1.6 (≈ 0.676 µg/mL) |

Tested on: Mannheimia haemolytica MH 12587 (1071), macrolide-resistance: erm+, E+
Assay: MIC, broth-microdilution (CLSI), strain MH 12587
Format: cell-based
Conditions: Mannheimia haemolytica 1071, BRD field isolate
Experimental: as §1, §2

| SMILES | MIC MH 12587 [µM] |
| --- | --- |
| C#CCNCc1ccc(C#Cc2ccc(C(=O)N(C)C(C(=O)NC)C(=O)NO)cc2)cc1 (centres unmarked) [Compound 30] | 3.1 (≈ 1.34 µg/mL) |
| CNC(=O)C(NC(=O)c1ccc(C#Cc2ccc(CN3CCCC3)cc2)cc1)C(=O)NO (centres unmarked) [Compound 7] | 12.5 (≈ 5.43 µg/mL) |
| CNC(=O)C(C(=O)NO)N(C)C(=O)c1ccc(C#Cc2ccc(CNC3CCCC3)cc2)cc1 (centres unmarked) [Compound 26] | 25 (≈ 11.6 µg/mL) |
| CNC(=O)C(NC(=O)c1ccc(C#Cc2ccc(CNCc3ccc(C)cc3)cc2)cc1)C(=O)NO (centres unmarked) [Compound 16] | 1.6 (≈ 0.775 µg/mL) |
| CCCNCc1ccc(C#Cc2ccc(C(=O)NC(C(=O)NC)C(=O)NO)cc2)cc1 (centres unmarked) [Compound 10] | 12.5 (≈ 5.28 µg/mL) |

Tested on: Mannheimia haemolytica MH 13065 (XB0446-6003.9)
Assay: MIC, broth-microdilution (CLSI), strain MH 13065
Format: cell-based
Conditions: Mannheimia haemolytica XB0446-6003.9, BRD field isolate
Experimental: as §1, §2

| SMILES | MIC MH 13065 [µM] |
| --- | --- |
| C#CCNCc1ccc(C#Cc2ccc(C(=O)N(C)C(C(=O)NC)C(=O)NO)cc2)cc1 (centres unmarked) [Compound 30] | 1.6 (≈ 0.692 µg/mL) |
| CNC(=O)C(NC(=O)c1ccc(C#Cc2ccc(CN3CCCC3)cc2)cc1)C(=O)NO (centres unmarked) [Compound 7] | 12.5 (≈ 5.43 µg/mL) |
| CNC(=O)C(C(=O)NO)N(C)C(=O)c1ccc(C#Cc2ccc(CNC3CCCC3)cc2)cc1 (centres unmarked) [Compound 26] | 12.5 (≈ 5.78 µg/mL) |
| CNC(=O)C(NC(=O)c1ccc(C#Cc2ccc(CNCc3ccc(C)cc3)cc2)cc1)C(=O)NO (centres unmarked) [Compound 16] | 0.8 (≈ 0.388 µg/mL) |
| CCCNCc1ccc(C#Cc2ccc(C(=O)NC(C(=O)NC)C(=O)NO)cc2)cc1 (centres unmarked) [Compound 10] | 3.1 (≈ 1.31 µg/mL) |

Tested on: Mannheimia haemolytica MH 13093 (XB0472-6014.1)
Assay: MIC, broth-microdilution (CLSI), strain MH 13093
Format: cell-based
Conditions: Mannheimia haemolytica XB0472-6014.1, BRD field isolate
Experimental: as §1, §2

| SMILES | MIC MH 13093 [µM] |
| --- | --- |
| C#CCNCc1ccc(C#Cc2ccc(C(=O)N(C)C(C(=O)NC)C(=O)NO)cc2)cc1 (centres unmarked) [Compound 30] | 1.6 (≈ 0.692 µg/mL) |
| CNC(=O)C(NC(=O)c1ccc(C#Cc2ccc(CN3CCCC3)cc2)cc1)C(=O)NO (centres unmarked) [Compound 7] | 6.3 (≈ 2.74 µg/mL) |
| CNC(=O)C(C(=O)NO)N(C)C(=O)c1ccc(C#Cc2ccc(CNC3CCCC3)cc2)cc1 (centres unmarked) [Compound 26] | 25 (≈ 11.6 µg/mL) |
| CNC(=O)C(NC(=O)c1ccc(C#Cc2ccc(CNCc3ccc(C)cc3)cc2)cc1)C(=O)NO (centres unmarked) [Compound 16] | 1.6 (≈ 0.775 µg/mL) |
| CCCNCc1ccc(C#Cc2ccc(C(=O)NC(C(=O)NC)C(=O)NO)cc2)cc1 (centres unmarked) [Compound 10] | 1.6 (≈ 0.676 µg/mL) |

Tested on: Pasteurella multocida PM 6267 (P 2225 (L386))
Assay: MIC, broth-microdilution (CLSI), strain PM 6267
Format: cell-based
Conditions: Pasteurella multocida P 2225 (L386), reference strain (mouse infection strain)
Experimental: as §1, §2

| SMILES | MIC PM 6267 [µM] |
| --- | --- |
| C#CCNCc1ccc(C#Cc2ccc(C(=O)N(C)C(C(=O)NC)C(=O)NO)cc2)cc1 (centres unmarked) [Compound 30] | 0.4 (≈ 0.173 µg/mL) |
| CNC(=O)C(NC(=O)c1ccc(C#Cc2ccc(CN3CCCC3)cc2)cc1)C(=O)NO (centres unmarked) [Compound 7] | ≤0.1 |
| CNC(=O)C(C(=O)NO)N(C)C(=O)c1ccc(C#Cc2ccc(CNC3CCCC3)cc2)cc1 (centres unmarked) [Compound 26] | 0.8 (≈ 0.37 µg/mL) |
| CNC(=O)C(NC(=O)c1ccc(C#Cc2ccc(CNCc3ccc(C)cc3)cc2)cc1)C(=O)NO (centres unmarked) [Compound 16] | ≤0.1 |
| CCCNCc1ccc(C#Cc2ccc(C(=O)NC(C(=O)NC)C(=O)NO)cc2)cc1 (centres unmarked) [Compound 10] | 0.8 (≈ 0.338 µg/mL) |

Tested on: Pasteurella multocida PM 6391 (ATCC 43137)
Assay: MIC, broth-microdilution (CLSI), strain PM 6391
Format: cell-based
Conditions: Pasteurella multocida ATCC 43137, reference strain
Experimental: as §1, §2

| SMILES | MIC PM 6391 [µM] |
| --- | --- |
| C#CCNCc1ccc(C#Cc2ccc(C(=O)N(C)C(C(=O)NC)C(=O)NO)cc2)cc1 (centres unmarked) [Compound 30] | 1.6 (≈ 0.692 µg/mL) |
| CNC(=O)C(NC(=O)c1ccc(C#Cc2ccc(CN3CCCC3)cc2)cc1)C(=O)NO (centres unmarked) [Compound 7] | 0.4 (≈ 0.174 µg/mL) |
| CNC(=O)C(C(=O)NO)N(C)C(=O)c1ccc(C#Cc2ccc(CNC3CCCC3)cc2)cc1 (centres unmarked) [Compound 26] | 1.6 (≈ 0.74 µg/mL) |
| CNC(=O)C(NC(=O)c1ccc(C#Cc2ccc(CNCc3ccc(C)cc3)cc2)cc1)C(=O)NO (centres unmarked) [Compound 16] | 0.4 (≈ 0.194 µg/mL) |
| CCCNCc1ccc(C#Cc2ccc(C(=O)NC(C(=O)NC)C(=O)NO)cc2)cc1 (centres unmarked) [Compound 10] | 0.8 (≈ 0.338 µg/mL) |

Tested on: Pasteurella multocida PM 10775 (080130003051)
Assay: MIC, broth-microdilution (CLSI), strain PM 10775
Format: cell-based
Conditions: Pasteurella multocida 080130003051, BRD field isolate
Experimental: as §1, §2

| SMILES | MIC PM 10775 [µM] |
| --- | --- |
| C#CCNCc1ccc(C#Cc2ccc(C(=O)N(C)C(C(=O)NC)C(=O)NO)cc2)cc1 (centres unmarked) [Compound 30] | ≤0.1 |
| CNC(=O)C(NC(=O)c1ccc(C#Cc2ccc(CN3CCCC3)cc2)cc1)C(=O)NO (centres unmarked) [Compound 7] | 0.2 (≈ 0.0869 µg/mL) |
| CNC(=O)C(C(=O)NO)N(C)C(=O)c1ccc(C#Cc2ccc(CNC3CCCC3)cc2)cc1 (centres unmarked) [Compound 26] | 0.4 (≈ 0.185 µg/mL) |
| CNC(=O)C(NC(=O)c1ccc(C#Cc2ccc(CNCc3ccc(C)cc3)cc2)cc1)C(=O)NO (centres unmarked) [Compound 16] | ≤0.1 |
| CCCNCc1ccc(C#Cc2ccc(C(=O)NC(C(=O)NC)C(=O)NO)cc2)cc1 (centres unmarked) [Compound 10] | 0.2 (≈ 0.0845 µg/mL) |

Tested on: Pasteurella multocida PM 12080 (IV102277-0093)
Assay: MIC, broth-microdilution (CLSI), strain PM 12080
Format: cell-based
Conditions: Pasteurella multocida IV102277-0093, BRD field isolate
Experimental: as §1, §2

| SMILES | MIC PM 12080 [µM] |
| --- | --- |
| C#CCNCc1ccc(C#Cc2ccc(C(=O)N(C)C(C(=O)NC)C(=O)NO)cc2)cc1 (centres unmarked) [Compound 30] | 0.8 (≈ 0.346 µg/mL) |
| CNC(=O)C(NC(=O)c1ccc(C#Cc2ccc(CN3CCCC3)cc2)cc1)C(=O)NO (centres unmarked) [Compound 7] | 0.8 (≈ 0.348 µg/mL) |
| CNC(=O)C(C(=O)NO)N(C)C(=O)c1ccc(C#Cc2ccc(CNC3CCCC3)cc2)cc1 (centres unmarked) [Compound 26] | 1.6 (≈ 0.74 µg/mL) |
| CNC(=O)C(NC(=O)c1ccc(C#Cc2ccc(CNCc3ccc(C)cc3)cc2)cc1)C(=O)NO (centres unmarked) [Compound 16] | 0.2 (≈ 0.0969 µg/mL) |
| CCCNCc1ccc(C#Cc2ccc(C(=O)NC(C(=O)NC)C(=O)NO)cc2)cc1 (centres unmarked) [Compound 10] | 0.8 (≈ 0.338 µg/mL) |
